The assay deals with normal human dermal fibroblasts. Briefly: Synthesis of glycosaminoglycans (hyaluronic acid): incorporation of radioactivity into the matrix neosynthesized by fibroblast cultures. The class given is cell-based. The settings on record: 72 hours incubation; for cpm (radioactivity incorporated into matrix GAGs): 35S-sulphate during final 24 hours; for %/control: relative to the control (100). Here is the method: The study was carried out by measuring the incorporation of radioactive glucosamine into the matrix neosynthesized by normal human dermal fibroblast cultures. The incorporation of radioactive glucosamine indicates specific neosynthesis of glycosaminoglycans via incorporation of the sulphated form of this glucosamine.
Normal human dermal fibroblasts were seeded in the conventional culture medium and were then preincubated for 24 hours. The culture medium was then replaced with the test compounds at concentrations of 0.3, 1 and 3 mM; or culture medium (control); or TGFβ at 10 ng/ml (quality control). The cells were incubated for 72 hours with the addition of ^35S-sulphate during the final 24 hours of culture. The GAGs in the matrix were extracted with a chaotropic buffer and then purified by ion exchange chromatography (adsorption of the anionic molecules onto Q-sepharose beads under high stringency conditions, followed by desorption of the weakly and moderately anionic molecules with urea). The radioactivity incorporated into the very […] molecules that remained on the support were counted by liquid scintillation.
The results are expressed as percentage relative to the control: […]

Regarding `C[C@H](O)C[C@@H]1OC[C@@H](O)[C@H](O)[C@H]1O` [Example 1, C-β-D-xylopyranoside-2-(S)-hydroxypropane], the “cpm (radioactivity incorporated into matrix GAGs)” value (from here on “cpm”) (0.3 mM) stood at 16276 cpm, the “cpm” value (1 mM) turned out to be 30943 cpm and the “cpm” value (3 mM) turned out to be 40770 cpm. Besides, the “%/control” value is, setting by setting: (0.3 mM) 325%; (1 mM) 618%; (3 mM) 814%.
For the compound TGFβ [reference compound], under “10 ng/ml”, the “cpm” value is reported as 9625 cpm and the “%/control” value was found to be 192%.

The record behind these values is patent US20080146516A1, “Novel C-Glycosides, uses thereof” (L 'OREAL SA, priority 2004, published 2008).
